The values below come from ChEMBL document CHEMBL4842339, “8-Hydroxyquinolin-2(1H)-one analogues as potential β2-agonists: Design, synthesis and activity study” (Eur J Med Chem, 2021).

SMILES strings stand for the structures.

Assay [1] has as its target Beta-2 adrenergic receptor (Homo sapiens, UniProt P07550). Nature of the assay: Agonist activity at human beta2 adrenoreceptor overexpressed in HEK293 cells assessed as cAMP accumulation. Type of assay: functional, cell-based. Background: Cyclic AMP is a second messenger, typically raised through Gs and lowered through Gi signalling.
Assay [2] can be described thus: […] agonist activity at beta2 adrenergic receptor isolated from guinea pig tracheal smooth muscle assessed as inhibition of histamine-induced tracheal smooth muscle contraction by measuring maximal relaxant effect relative to control. It counts as functional. The conditions noted are these: Cavia porcellus.
In assay [3] the target is Beta-1 adrenergic receptor (Homo sapiens, UniProt P08588). Put plainly: Agonist activity at human beta1 adrenoreceptor overexpressed in HEK293 cells assessed as cAMP accumulation. It counts as functional, cell-based.
Sequence of Beta-1 adrenergic receptor (P08588 whole entry): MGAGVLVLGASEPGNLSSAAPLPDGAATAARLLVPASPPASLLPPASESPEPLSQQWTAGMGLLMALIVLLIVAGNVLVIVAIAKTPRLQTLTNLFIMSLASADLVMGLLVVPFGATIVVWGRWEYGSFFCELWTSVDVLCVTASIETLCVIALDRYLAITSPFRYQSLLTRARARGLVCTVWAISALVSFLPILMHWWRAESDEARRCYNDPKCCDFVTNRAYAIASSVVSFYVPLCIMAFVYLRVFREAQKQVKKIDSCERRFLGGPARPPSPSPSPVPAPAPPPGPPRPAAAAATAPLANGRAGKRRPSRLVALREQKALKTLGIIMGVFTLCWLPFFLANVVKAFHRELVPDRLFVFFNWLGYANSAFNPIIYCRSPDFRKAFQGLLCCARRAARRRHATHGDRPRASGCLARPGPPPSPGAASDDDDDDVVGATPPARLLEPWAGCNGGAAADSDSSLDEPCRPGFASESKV
The nature of assay [4]: […] agonist activity at beta2 adrenergic receptor isolated from guinea pig tracheal smooth muscle assessed as inhibition of histamine-induced tracheal smooth muscle contraction. Type of assay: functional, Cavia porcellus.
Assay [5] is filed under the species Cavia porcellus. Put plainly: Myorelaxant effect in guinea pig model of histamine-induced smooth muscle contraction assessed as time duration of action measured over 12 hrs. It counts as functional. The conditions noted are these: time hrs >12.
For assay [6], the species on record is Cavia porcellus. Nature of the assay: Myorelaxant effect in guinea pig model of histamine-induced smooth muscle contraction assessed as time of onset of action measured over 12 hrs. Type of assay: functional.

Sequence of Beta-2 adrenergic receptor (P07550 whole entry): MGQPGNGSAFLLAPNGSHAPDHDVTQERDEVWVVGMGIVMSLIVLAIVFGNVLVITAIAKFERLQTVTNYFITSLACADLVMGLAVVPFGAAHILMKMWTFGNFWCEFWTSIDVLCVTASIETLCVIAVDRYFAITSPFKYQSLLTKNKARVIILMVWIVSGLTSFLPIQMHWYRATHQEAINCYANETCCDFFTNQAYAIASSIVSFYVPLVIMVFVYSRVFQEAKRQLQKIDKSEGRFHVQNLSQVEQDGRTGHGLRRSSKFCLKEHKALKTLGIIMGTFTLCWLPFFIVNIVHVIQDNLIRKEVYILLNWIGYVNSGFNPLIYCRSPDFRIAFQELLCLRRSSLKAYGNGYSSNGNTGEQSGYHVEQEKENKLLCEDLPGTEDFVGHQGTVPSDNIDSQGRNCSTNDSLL

A word on the EC50: it is the concentration giving half of the maximal effect. In the case of `O=c1ccc2c(C(O)CNCCCc3cccc(F)c3)ccc(O)c2[nH]1` (stereo unspecified), the EC50 in assay [1] is 0.0245 nM.

The term Emax denotes the maximal effect, on the per cent scale that the assay sets. `CC(CCc1ccc(O)cc1)NCC(O)c1ccc(O)c2[nH]c(=O)ccc12` (stereo unspecified): the maximal response (Emax) in assay [2] is 71.3%. Besides, the EC50 in assay [1] is 0.0107 nM.

On to `CC(CCc1cccc(Cl)c1)NCC(O)c1ccc(O)c2[nH]c(=O)ccc12` (stereo unspecified), for which the maximum response (Emax) in assay [2] is 105%. The EC50 in assay [1] is 0.0724 nM.

Turning to `Cc1ccccc1CCC(C)NCC(O)c1ccc(O)c2[nH]c(=O)ccc12` (stereo unspecified), the EC50 in assay [3] is 6.76 nM.

Turning to `COc1ccccc1CC[C@@H](C)NC[C@H](O)c1ccc(O)c2[nH]c(=O)ccc12`, in assay [1], the EC50 is 0.0288 nM.

On to `Cc1ccccc1CCC(C)(C)NCC(O)c1ccc(O)c2[nH]c(=O)ccc12` (stereo unspecified), for which the 50% effective concentration (EC50) in assay [1] was 0.0178 nM.

For `COc1ccc(CCC(C)(C)NCC(O)c2ccc(O)c3[nH]c(=O)ccc23)cc1.Cl` (stereo unspecified), the Emax in assay [2] stood at 161%. In assay [4], the pD2 is 7.86. Also, the 50% effective concentration (EC50) in assay [3] was 7.76 nM; in assay [1], 0.0309 nM.

For the molecule `CC(CCc1cccc(O)c1)NCC(O)c1ccc(O)c2[nH]c(=O)ccc12` (stereo unspecified), the EC50 in assay [1] was 0.0135 nM.

Regarding `CC(CCc1ccc(Cl)cc1)NCC(O)c1ccc(O)c2[nH]c(=O)ccc12` (stereo unspecified), in assay [3], the 50% effective concentration (EC50) was 6.31 nM.

As to `CC(C)(CCc1cccc(O)c1)NCC(O)c1ccc(O)c2[nH]c(=O)ccc12.Cl` (stereo unspecified), in assay [2], the Emax was 103%. The pD2 in assay [4] was 6.37. Moreover, the EC50 was 2.4 nM in assay [3] and 0.0182 nM in assay [1].

In the case of `COc1ccccc1CCC(C)NCC(O)c1ccc(O)c2[nH]c(=O)ccc12` (stereo unspecified), the concentration giving a half-maximal response (EC50) in assay [1] was 0.0148 nM.

Turning to `Cc1cccc(CCC(C)(C)NCC(O)c2ccc(O)c3[nH]c(=O)ccc23)c1` (stereo unspecified), the Emax in assay [2] was 152%. The EC50 in assay [3] was 2.63 nM.

In the case of `CC(C)(CCc1cccc(Cl)c1)NCC(O)c1ccc(O)c2[nH]c(=O)ccc12.Cl` (stereo unspecified), the Time in the assay filed under Cavia porcellus [5] is greater than 12 h; in the assay listed under Cavia porcellus [6] it was 3.43 min.

Consider `COc1ccccc1CCC(C)(C)NCC(O)c1ccc(O)c2[nH]c(=O)ccc12` (stereo unspecified), for which the Emax in assay [2] came to 141%. For the same molecule, in assay [1], the half-maximal effective concentration (EC50) is 0.0224 nM.

On to `Cc1ccccc1CCCNCC(O)c1ccc(O)c2[nH]c(=O)ccc12.Cl` (stereo unspecified), for which, in assay [2], the Emax amounted to 125%. In addition, the pD2 in assay [4] was found to be 7.72. Besides, the EC50 in assay [3] is 17 nM; in assay [1], 0.0575 nM.

Regarding `COc1ccc(CCC(C)NCC(O)c2ccc(O)c3[nH]c(=O)ccc23)cc1.Cl` (stereo unspecified), in assay [2], the Emax amounted to 104%. Moreover, the pD2 in assay [4] is listed as 7.48. In addition, the figures for the EC50 in assay [3] and in assay [1] were 44.7 nM and 0.0182 nM, respectively.

`CC(CCc1ccccc1Cl)NCC(O)c1ccc(O)c2[nH]c(=O)ccc12.Cl` (stereo unspecified): the Emax in assay [2] was found to be 95.3%. For the same molecule, in assay [4], the pD2 is 7.87. Further, the concentration for a half-maximal effect (EC50) in assay [3] was 4.57 nM; in assay [1], 0.0339 nM.

As to `COc1cccc(CCC(C)NCC(O)c2ccc(O)c3[nH]c(=O)ccc23)c1.Cl` (stereo unspecified), the Emax in assay [2] worked out at 196%. Moreover, the pD2 in assay [4] was 7.33. Besides, the Time is greater than 12 h in the assay filed under Cavia porcellus [5] and 4.97 min in the assay listed under Cavia porcellus [6]. Besides, the EC50 in assay [3] is 2.57 nM; in assay [1], 0.0214 nM.

In the case of `COc1cccc(CCC(C)(C)NCC(O)c2ccc(O)c3[nH]c(=O)ccc23)c1` (stereo unspecified), the Emax in assay [2] was 112%. Also, the half-maximal effective concentration (EC50) in assay [3] is 7.59 nM.

For the molecule `COc1cc(CCC(C)NCC(O)c2ccc(O)c3[nH]c(=O)ccc23)cc(OC)c1OC` (stereo unspecified), the maximum response (Emax) in assay [2] stood at 141%. For the same molecule, the 50% effective concentration (EC50) in assay [3] is 35.5 nM.

For `Cc1ccc(CCC(C)(C)NCC(O)c2ccc(O)c3[nH]c(=O)ccc23)cc1` (stereo unspecified), the 50% effective concentration (EC50) in assay [3] is 24.5 nM.

For `Cc1ccc(CCC(C)NCC(O)c2ccc(O)c3[nH]c(=O)ccc23)cc1.Cl` (stereo unspecified), the Emax in assay [2] was determined as 95.9%. Further, in assay [4], the pD2 is 7.58. The EC50 in assay [3] was 10.5 nM; in assay [1], 0.038 nM.

Turning to `COc1cc(CCCNCC(O)c2ccc(O)c3[nH]c(=O)ccc23)cc(OC)c1OC.Cl` (stereo unspecified), in assay [2], the Emax came to 111%. Moreover, the pD2 in assay [4] is on record as 7.74. Moreover, the EC50 is 10000 nM in assay [3] and 0.0832 nM in assay [1].

Consider `CC(CCc1cccc(F)c1)NCC(O)c1ccc(O)c2[nH]c(=O)ccc12` (stereo unspecified), for which the maximal response (Emax) in assay [2] is 163%. In assay [3], the EC50 was 3.09 nM.

On to `CC(CCc1ccc(F)cc1)NCC(O)c1ccc(O)c2[nH]c(=O)ccc12` (stereo unspecified), for which the Emax in assay [2] came to 100%. For the same molecule, the EC50 in assay [1] was 0.0282 nM.

With `CC(C)(CCc1ccccc1Cl)NCC(O)c1ccc(O)c2[nH]c(=O)ccc12` (stereo unspecified), the Emax in assay [2] is 124%. In assay [3], the EC50 was 1.74 nM.

For `Cc1cccc(CCCNCC(O)c2ccc(O)c3[nH]c(=O)ccc23)c1.Cl` (stereo unspecified), in assay [2], the maximal effect (Emax) was 144%. Also, the pD2 in assay [4] is recorded as 7.66. Besides, the EC50 is 14.5 nM in assay [3] and 0.038 nM in assay [1].

Turning to `O=c1ccc2c(C(O)CNCCCc3cc(F)cc(F)c3)ccc(O)c2[nH]1` (stereo unspecified), the EC50 in assay [1] was 0.0214 nM.

`O=c1ccc2c(C(O)CNCCCc3cccc(C(F)(F)F)c3)ccc(O)c2[nH]1` (stereo unspecified): the EC50 in assay [1] was 0.0282 nM.

In the case of `Cc1cccc(CCC(C)NCC(O)c2ccc(O)c3[nH]c(=O)ccc23)c1` (stereo unspecified), the EC50 in assay [3] is 4.07 nM.

`Cc1ccc(CCCNCC(O)c2ccc(O)c3[nH]c(=O)ccc23)cc1` (stereo unspecified): the half-maximal effective concentration (EC50) in assay [1] is 0.0955 nM.

As to `Cl.O=c1ccc2c(C(O)CNCCCc3ccc(F)cc3)ccc(O)c2[nH]1` (stereo unspecified), the Emax in assay [2] turned out to be 153%. For the same molecule, in assay [4], the pD2 stood at 7.39. Besides, the 50% effective concentration (EC50) in assay [3] is 16.2 nM; in assay [1], 0.0468 nM.

For `CC(C)NCC(O)c1ccc(O)c(O)c1` (stereo unspecified) [ISOPROTERENOL], in assay [2], the Emax was 181%. Further, the Time in the assay listed under Cavia porcellus [6] was determined as 3.1 min.

Take `COc1ccc(CC(C)(C)NC[C@H](O)c2cc(O)cc3c2OCC(=O)N3)cc1` [OLODATEROL]: in assay [2], the maximal effect (Emax) is 170%. Also, the Time in the assay filed under Cavia porcellus [6] is on record as 2.31 min. In addition, the concentration for a half-maximal effect (EC50) in assay [3] was 123 nM.

Take `OCc1cc(C(O)CNCCCCCCOCCCCc2ccccc2)ccc1O` (stereo unspecified) [SALMETEROL]: the Emax in assay [2] is 172%. The Time in the assay listed under Cavia porcellus [6] is given as 4.23 min.
